# Results reported in article PMC12118597 (Science Advances, 2025).
# Several values for one entry are separate records, joined by “and”; a condition that tells them apart may be missing. Identical values can stand only once. Entries after “also recorded” stand apart in the source; their conditions may differ. Like-named read-outs stand apart in the source and are kept apart here.
# What was measured:
# [1] = biological target: T1, SARS-CoV-2 NSP3 macrodomain (Mac1) (Severe acute respiratory syndrome coronavirus 2, UniProt P0DTD1); test: biochemical; format: binding
# [2] = biological target: T1, SARS-CoV-2 NSP3 macrodomain (Mac1); format: binding; settings: for Total number of conformations: ligand conformations modeled in the crystal structure; for 2*(1-BDC) (%): occupancy estimate from PanDDA; for 1-BDC (PanDDA run, DMSO background map): event 1
# [3] = HTRF binding curve, SARS-CoV-2 Mac1
# [4] = SARS CoV-2 macrodomain HTRF assay, dose-response
# [5] = SARS CoV-2 macrodomain HTRF assay, single dose concentration 200 μM, read-out: Average % competition
# [6] = compound at 200 μM, mean of three to four technical replicates, read-out: % competition at 200 μM (preliminary HTRF screen)
# [7] = PanDDA background density correction factor
# [8] = crystal soak 10 mM, P43 crystal form
# [9] = ligand-bound crystal structure obtained (TRUE)
# [10] = refined crystallographic occupancy
# [11] = site occupied in X-ray crystal structure
# [12] = TRUE = crystal structure with ligand obtained
# [13] = site of ligand in X-ray crystal structure
# [14] = PanDDA background density correction, 1-BDC
# [15] = crystal soak, 10 mM soak concentration, P43 crystal form
# [16] = crystal soak concentration 10 mM
# [17] = crystal soak concentration 10 mM, P43 crystals
# [18] = open state of Phe132 loop seen in the ligand-bound structure
Structure (SMILES),"Hill slope [1, 3]","Hill slope [1, 4]",Occupancy difference (refined_occupancy - 2*(1-BDC)) [2],"1-BDC [2, 7]","PanDDA run, overall: Hit [2, 8]","PanDDA run, DMSO background map: 1-BDC ([2]; crystal soak 10 mM)","PanDDA run, DMSO background map: Hit ([2]; crystal soak 10 mM)",Total number of conformations [2],"X-ray crystal structure [2, 9]",2*(1-BDC) (%) [2] [%],"Refined ligand occupancy (%) [2, 10] [%]","Binding site [2, 11]","1-BDC [2, 14]","Hit (PanDDA run, DMSO background map) ([2]; crystal soak 10 mM)","1-BDC (PanDDA run, DMSO background map) ([2]; crystal soak 10 mM)","Hit (PanDDA run, overall) [2, 15]",Refined ligand occupancy (%) ([2]; crystallographic refinement),further results
CC1(C)C[C@@H](CO)N(c2ncnc3[nH]ccc23)C1.O=C(O)C(F)(F)F [AVI-3704],1.1,1.1,0,0.33,TRUE,0.33,TRUE,1,TRUE,66,66,Adenosine,–,–,–,–,–,"inhibition at 200 µM [1, 5]: 90%; inhibition at 200 µM [1, 6]: 90%"
OCC1CC2(CCCC2)CN1c1ncnc2[nH]ccc12 (stereo not drawn) [AVI-3708],1.1,1.1,0,0.32,TRUE,0.32,TRUE,1,TRUE,64,64,Adenosine,–,–,–,–,–,"inhibition at 200 µM [1, 5]: 90%; inhibition at 200 µM [1, 6]: 90%"
OCC1C2CCC(C2)N1c1ncnc2[nH]ccc12 (stereo not drawn) [AVI-3713],1.1,1.1,0,0.29,TRUE,0.29,TRUE,1,TRUE,58,58,Adenosine,–,–,–,–,–,–
OC[C@@H]1C[C@@H]2CCC[C@@H]2N1c1ncnc2[nH]ccc12 [AVI-3720],1.2,1.2,0,0.29,TRUE,0.29,TRUE,1,TRUE,58,58,Adenosine,–,–,–,–,–,Phe132 loop open state [2]: TRUE
O=C(O)C(F)(F)F.OC1([C@H]2CCCN2c2ncnc3[nH]ccc23)Cc2ccccc2C1 [AVI-3731],1.1,1.1,0,0.2,TRUE,0.2,TRUE,1,TRUE,40,40,Adenosine,–,–,–,–,–,"inhibition at 200 µM [1, 5]: 100%; inhibition at 200 µM [1, 6]: 100%"
OCCC(CO)Nc1ncnc2[nH]ccc12 (stereo not drawn) [AVI-3734],1.2,1.2,0,0.25,TRUE,0.25,TRUE,1,–,50,50,–,–,–,–,–,–,"X-ray crystal structure [2, 12]: TRUE; Binding site [2, 13]: Adenosine"
CC(O)C1CCCN1c1ncnc2[nH]ccc12 (stereo not drawn) [AVI-4062],1.1,1.1,–,–,–,–,–,–,TRUE,52,–,Adenosine,0.26,TRUE,0.26 and 0.29,TRUE,70,–
C[C@H]1CC[C@H](CO)N(c2ncnc3[nH]ccc23)C1 [AVI-4063],1.1,1.1,–,–,–,–,–,–,TRUE,32,–,Adenosine,0.16,TRUE,0.21 and 0.16,TRUE,50,–
C[C@@H]1CCN(c2ncnc3[nH]ccc23)[C@H](CO)C1 [AVI-4064],1.2,1.2,–,–,–,–,–,–,TRUE,38,–,Adenosine,0.19,TRUE,0.19,TRUE,38,–
O=C(O)C(F)(F)F.OC[C@H](Cc1ccc(O)cc1)Nc1ncnc2[nH]ccc12 [AVI-4066],1.1,1.1,–,–,–,–,–,–,–,40,–,–,0.2,TRUE,0.2 and 0.37 and 0.38,TRUE,50,"X-ray crystal structure [2, 12]: TRUE; Binding site [2, 13]: Adenosine"
CC(C)(O)C1N(c2ncnc3[nH]ccc23)CCC1(C)C (stereo not drawn) [AVI-4126],1.3,1.3,–,–,–,–,–,–,TRUE,32,–,Adenosine,0.16,–,–,–,40,"Hit (PanDDA run, DMSO background map) [2, 16]: TRUE; Modeled (PanDDA run, DMSO background map) [2, 16]: TRUE; 1-BDC (PanDDA run, DMSO background map) [2, 16]: 0.17 and 0.16; Hit (PanDDA run, overall) [2, 17]: TRUE; Modeled (PanDDA run, overall) [2, 17]: TRUE; Modeling comment (PanDDA run, overall) [2, 17]: Duplicate, not modeled; Phe132 loop open state [2, 18]: TRUE"
CC(C)(O)C1C2CCCCC2CN1c1ncnc2[nH]ccc12 (stereo not drawn) [AVI-4127],1.3,1.3,–,–,–,–,–,–,TRUE,50,–,Adenosine,0.25,–,–,–,60,"Hit (PanDDA run, DMSO background map) [2, 16]: TRUE; Modeled (PanDDA run, DMSO background map) [2, 16]: TRUE; 1-BDC (PanDDA run, DMSO background map) [2, 16]: 0.23 and 0.25; Hit (PanDDA run, overall) [2, 17]: TRUE; Modeled (PanDDA run, overall) [2, 17]: TRUE; Modeling comment (PanDDA run, overall) [2, 17]: Duplicate, not modeled; Phe132 loop open state [2, 18]: TRUE"
CC(C)(O)C1C2CCC2CN1c1ncnc2[nH]ccc12 (stereo not drawn) [AVI-4128],1.2,1.2,–,–,–,–,–,–,TRUE,40,–,Adenosine,0.2,–,–,–,60,"Hit (PanDDA run, DMSO background map) [2, 16]: TRUE; Modeled (PanDDA run, DMSO background map) [2, 16]: TRUE; 1-BDC (PanDDA run, DMSO background map) [2, 16]: 0.27 and 0.2; Hit (PanDDA run, overall) [2, 17]: TRUE; Modeled (PanDDA run, overall) [2, 17]: TRUE; Modeling comment (PanDDA run, overall) [2, 17]: Duplicate, not modeled; also recorded: Weak density for open conformation"
"Cc1c[nH]c2ncnc(NCC3(O)CCOCC3)c12 [AVI-4194, 4-(((5-methyl-7H-pyrrolo[2,3-d]pyrimidin-4-yl)amino)methyl)tetrahydro-2H-pyran-4-ol]",1.3,1.3,–,–,–,–,–,–,TRUE,18,–,Adenosine,0.09,–,–,–,18,"Hit (PanDDA run, DMSO background map) [2, 16]: TRUE; Modeled (PanDDA run, DMSO background map) [2, 16]: TRUE; 1-BDC (PanDDA run, DMSO background map) [2, 16]: 0.13 and 0.09; Hit (PanDDA run, overall) [2, 17]: TRUE; Modeled (PanDDA run, overall) [2, 17]: TRUE; Modeling comment (PanDDA run, overall) [2, 17]: Duplicate, not modeled"
"Cc1c[nH]c2ncnc(NCC3(O)CCSCC3)c12 [AVI-4195, 4-(((5-methyl-7H-pyrrolo[2,3-d]pyrimidin-4-yl)amino)methyl)tetrahydro-2H-thiopyran-4-ol]",1.2,1.2,–,–,–,–,–,–,TRUE,28,–,Adenosine,0.14,–,–,–,28,"Hit (PanDDA run, DMSO background map) [2, 16]: TRUE; Modeled (PanDDA run, DMSO background map) [2, 16]: TRUE; 1-BDC (PanDDA run, DMSO background map) [2, 16]: 0.14; Hit (PanDDA run, overall) [2, 17]: TRUE; Modeled (PanDDA run, overall) [2, 17]: TRUE; Modeling comment (PanDDA run, overall) [2, 17]: Duplicate, not modeled"
CC1CCCC(O)(CNc2ncnc3[nH]ccc23)C1 (stereo not drawn) [AVI-4307],1.0,1.0,–,–,–,–,–,–,TRUE,34,–,Adenosine,0.17,TRUE,0.17,TRUE,34,–
OC1(CNc2ncnc3[nH]ccc23)CCC(F)(F)CC1 [AVI-4308],1.2,1.2,–,–,–,–,–,–,TRUE,30,–,Adenosine,0.15,TRUE,0.15,TRUE,30,–
OC1(CNc2ncnc3[nH]ccc23)CCCC(C(F)(F)F)C1 (stereo not drawn) [AVI-4309],1.4,1.4,–,–,–,–,–,–,TRUE,40,–,Adenosine,0.2,TRUE,0.21,TRUE,40,–
